# Source: PubChem BioAssay (NCI)
#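 96-well plates; 48 h exposure; 5 concentrations. Endpoints by linear interpolation between flanking doses. Not reached: highest tested concentration assigned. GI50 = concentration required for 50% inhibition of growth. TGI denotes the concentration required for complete inhibition of growth.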
# Key:
# Assay in all cases: inhibition of tumour cell growth, NCI panel, 48 h
# NCI-H460 lung = tested on: NCI-H460 lung
# ACHN renal = tested on: ACHN renal
# HL-60(TB) leukemia = tested on: HL-60(TB) leukemia
# NCI-H23 lung = tested on: NCI-H23 lung
# UACC-257 melanoma = tested on: UACC-257 melanoma
# A498 renal = tested on: A498 renal
# SK-MEL-2 melanoma = tested on: SK-MEL-2 melanoma
# DU-145 prostate = tested on: DU-145 prostate
# T-47D breast = tested on: T-47D breast
# UACC-62 melanoma = tested on: UACC-62 melanoma
# SNB-78 CNS = tested on: SNB-78 CNS
# EKVX NSCLC = tested on: EKVX NSCLC
# IGROV1 ovarian = tested on: IGROV1 ovarian
# MOLT-4 leukemia = tested on: MOLT-4 leukemia
# SF-539 CNS = tested on: SF-539 CNS
# DMS 114 small cell lung = tested on: DMS 114 small cell lung
# OVCAR-8 ovarian = tested on: OVCAR-8 ovarian
# KM20L2 colon = tested on: KM20L2 colon
# HCT-15 colon = tested on: HCT-15 colon
# HCT-116 colon = tested on: HCT-116 colon
# MALME-3M melanoma = tested on: MALME-3M melanoma
# M19-MEL melanoma = tested on: M19-MEL melanoma
# BT-549 breast = tested on: BT-549 breast
# OVCAR-5 ovarian = tested on: OVCAR-5 ovarian
# SF-295 CNS = tested on: SF-295 CNS
# SNB-75 CNS = tested on: SNB-75 CNS
# KM12 colon = tested on: KM12 colon
# M14 melanoma = tested on: M14 melanoma
# NCI-H226 lung = tested on: NCI-H226 lung
# XF 498 CNS = tested on: XF 498 CNS
# OVCAR-4 ovarian = tested on: OVCAR-4 ovarian
# SK-OV-3 ovarian = tested on: SK-OV-3 ovarian
# HOP-18 NSCLC = tested on: HOP-18 NSCLC
# LXFL 529 NSCLC = tested on: LXFL 529 NSCLC
# HOP-62 NSCLC = tested on: HOP-62 NSCLC
# OVCAR-3 ovarian = tested on: OVCAR-3 ovarian
# SR leukemia = tested on: SR leukemia
# NCI-H522 lung = tested on: NCI-H522 lung
# A549 NSCLC = tested on: A549 NSCLC
# HCC-2998 colon = tested on: HCC-2998 colon
# TK-10 renal = tested on: TK-10 renal
# SK-MEL-28 melanoma = tested on: SK-MEL-28 melanoma
# SF-268 CNS = tested on: SF-268 CNS
# HT29 colon = tested on: HT29 colon
# DLD-1 colon = tested on: DLD-1 colon
# SN12C renal = tested on: SN12C renal
# SK-MEL-5 melanoma = tested on: SK-MEL-5 melanoma
# DMS 273 small cell lung = tested on: DMS 273 small cell lung
# U251 CNS = tested on: U251 CNS
# UO-31 renal = tested on: UO-31 renal
# CCRF-CEM leukemia = tested on: CCRF-CEM leukemia
# SNB-19 CNS = tested on: SNB-19 CNS
# RPMI-8226 leukemia = tested on: RPMI-8226 leukemia
# COLO 205 colon = tested on: COLO 205 colon
# LOX IMVI melanoma = tested on: LOX IMVI melanoma
# SW-620 colon = tested on: SW-620 colon
# HOP-92 NSCLC = tested on: HOP-92 NSCLC
# MDA-MB-231 breast = tested on: MDA-MB-231 breast
# 786-0 renal = tested on: 786-0 renal
# K-562 leukemia = tested on: K-562 leukemia
# CAKI-1 renal = tested on: CAKI-1 renal
# RXF 393 renal = tested on: RXF 393 renal
structure (smiles),measurement,setting,value
COC1C(O)CC(OC2CC(OC3CC(O[C@@H]4C(=O)c5c(cc6cc(OC7CC(OC8CC(O)C(O)C(C)O8)C(O)C(C)O7)c(C)c(O)c6c5O)C[C@H]4[C@H](OC)C(=O)[C@@H](O)[C@@H](C)O)OC(C)C3O)OC(C)C2O)OC1C (stereo not given in full),TGI,NCI-H460 lung,4.34 µM
same,TGI,ACHN renal,> 100 µM
same,GI50,HL-60(TB) leukemia,< 0.0215 µM
same,TGI,HL-60(TB) leukemia,1.57 µM
same,GI50,NCI-H23 lung,< 0.0189 µM
same,TGI,NCI-H23 lung,< 0.0442 µM
same,TGI,UACC-257 melanoma,0.931 µM
same,GI50,A498 renal,< 0.01 µM
same,TGI,A498 renal,0.0827 µM
same,TGI,SK-MEL-2 melanoma,< 0.0205 µM
same,TGI,DU-145 prostate,0.281 µM
same,TGI,T-47D breast,0.203 µM
same,TGI,UACC-62 melanoma,0.265 µM
same,TGI,SNB-78 CNS,> 100 µM
same,TGI,EKVX NSCLC,8.06 µM
same,GI50,IGROV1 ovarian,0.0363 µM
same,TGI,IGROV1 ovarian,> 100 µM
same,TGI,MOLT-4 leukemia,0.222 µM
same,TGI,SF-539 CNS,0.0312 µM
same,TGI,DMS 114 small cell lung,4.5 µM
same,TGI,OVCAR-8 ovarian,> 100 µM
same,TGI,KM20L2 colon,0.533 µM
same,TGI,HCT-15 colon,22 µM
same,TGI,HCT-116 colon,> 100 µM
same,TGI,MALME-3M melanoma,0.243 µM
same,TGI,M19-MEL melanoma,> 100 µM
same,TGI,BT-549 breast,11.2 µM
same,TGI,OVCAR-5 ovarian,0.564 µM
same,TGI,SF-295 CNS,> 20.3 µM
same,TGI,SNB-75 CNS,0.447 µM
same,TGI,KM12 colon,> 12 µM
same,TGI,M14 melanoma,0.116 µM
same,TGI,NCI-H226 lung,< 0.215 µM
same,TGI,XF 498 CNS,0.191 µM
same,TGI,OVCAR-4 ovarian,> 100 µM
same,TGI,SK-OV-3 ovarian,> 100 µM
same,TGI,HOP-18 NSCLC,36 µM
same,TGI,LXFL 529 NSCLC,> 100 µM
same,TGI,HOP-62 NSCLC,3.87 µM
same,TGI,OVCAR-3 ovarian,0.101 µM
same,TGI,SR leukemia,0.558 µM
same,TGI,NCI-H522 lung,0.0358 µM
same,TGI,A549 NSCLC,> 100 µM
same,TGI,HCC-2998 colon,0.114 µM
same,TGI,TK-10 renal,> 39.8 µM
same,TGI,SK-MEL-28 melanoma,0.0224 µM
same,TGI,SF-268 CNS,> 94 µM
same,TGI,HT29 colon,> 56 µM
same,TGI,DLD-1 colon,> 100 µM
same,TGI,SN12C renal,> 60.5 µM
same,TGI,SK-MEL-5 melanoma,0.032 µM
same,TGI,DMS 273 small cell lung,1.67 µM
same,TGI,U251 CNS,> 9.45 µM
same,TGI,UO-31 renal,0.15 µM
same,GI50,CCRF-CEM leukemia,0.0329 µM
same,TGI,CCRF-CEM leukemia,> 100 µM
same,TGI,SNB-19 CNS,> 11.1 µM
same,TGI,RPMI-8226 leukemia,0.383 µM
same,TGI,COLO 205 colon,0.0921 µM
same,GI50,LOX IMVI melanoma,0.0164 µM
same,TGI,LOX IMVI melanoma,> 100 µM
same,TGI,SW-620 colon,> 100 µM
same,TGI,HOP-92 NSCLC,1.06 µM
same,TGI,MDA-MB-231 breast,> 100 µM
same,TGI,786-0 renal,> 100 µM
same,GI50,K-562 leukemia,< 0.019 µM
same,TGI,K-562 leukemia,> 100 µM
same,TGI,CAKI-1 renal,> 100 µM
COc1ccc(/C(=C\c2cc(OC)c(OC)c(OC)c2)C(=O)O)cc1,TGI,NCI-H460 lung,> 100 µM
same,TGI,ACHN renal,> 100 µM
same,TGI,HL-60(TB) leukemia,72.3 µM
same,TGI,UACC-257 melanoma,> 100 µM
same,TGI,A498 renal,53.3 µM
same,TGI,UACC-62 melanoma,> 100 µM
same,TGI,SNB-78 CNS,> 100 µM
same,TGI,EKVX NSCLC,> 100 µM
same,TGI,IGROV1 ovarian,> 100 µM
same,TGI,MOLT-4 leukemia,86.3 µM
same,TGI,SF-539 CNS,39 µM
same,TGI,DMS 114 small cell lung,67.2 µM
same,TGI,OVCAR-8 ovarian,> 100 µM
same,TGI,KM20L2 colon,45 µM
same,TGI,HCT-15 colon,> 100 µM
same,TGI,HCT-116 colon,> 100 µM
same,TGI,MALME-3M melanoma,> 100 µM
same,TGI,M19-MEL melanoma,> 100 µM
same,TGI,SF-295 CNS,45.5 µM
same,TGI,SNB-75 CNS,75.1 µM
same,TGI,KM12 colon,85.6 µM
same,TGI,M14 melanoma,> 100 µM
same,TGI,NCI-H226 lung,77.4 µM
same,TGI,XF 498 CNS,62.3 µM
same,TGI,OVCAR-4 ovarian,> 100 µM
same,TGI,RXF 393 renal,39.7 µM
same,TGI,HOP-18 NSCLC,> 100 µM
same,TGI,LXFL 529 NSCLC,> 100 µM
same,TGI,HOP-62 NSCLC,> 100 µM
same,TGI,OVCAR-3 ovarian,> 100 µM
same,TGI,SR leukemia,> 100 µM
same,TGI,NCI-H522 lung,47.7 µM
same,TGI,A549 NSCLC,> 100 µM
same,TGI,TK-10 renal,> 100 µM
same,TGI,SK-MEL-28 melanoma,> 100 µM
same,TGI,SF-268 CNS,> 100 µM
same,TGI,HT29 colon,> 100 µM
same,TGI,DLD-1 colon,> 100 µM
same,TGI,SN12C renal,> 100 µM
same,TGI,SK-MEL-5 melanoma,41.7 µM
same,TGI,DMS 273 small cell lung,> 100 µM
same,TGI,U251 CNS,> 100 µM
same,TGI,UO-31 renal,97.5 µM
same,TGI,CCRF-CEM leukemia,> 100 µM
same,TGI,SNB-19 CNS,> 100 µM
same,TGI,RPMI-8226 leukemia,84.6 µM
same,TGI,COLO 205 colon,35.2 µM
same,TGI,LOX IMVI melanoma,> 100 µM
same,TGI,SW-620 colon,> 100 µM
same,TGI,HOP-92 NSCLC,> 100 µM
same,TGI,786-0 renal,> 100 µM
same,TGI,K-562 leukemia,> 100 µM
same,TGI,CAKI-1 renal,> 100 µM
CCOC(=O)N1CCc2cc(OC)c(OC)cc2/C1=C/c1ccc(OC)c(OC)c1,TGI,ACHN renal,> 100 µM
same,TGI,HL-60(TB) leukemia,65.1 µM
same,TGI,NCI-H23 lung,> 100 µM
same,TGI,UACC-257 melanoma,> 100 µM
same,TGI,A498 renal,> 100 µM
same,TGI,SK-MEL-2 melanoma,> 100 µM
same,TGI,UACC-62 melanoma,> 100 µM
same,TGI,SNB-78 CNS,> 100 µM
same,TGI,EKVX NSCLC,> 100 µM
same,TGI,IGROV1 ovarian,> 100 µM
same,TGI,MOLT-4 leukemia,> 100 µM
same,TGI,SF-539 CNS,> 100 µM
same,TGI,DMS 114 small cell lung,> 100 µM
same,TGI,KM20L2 colon,> 100 µM
same,TGI,HCT-15 colon,> 100 µM
same,TGI,HCT-116 colon,> 100 µM
same,TGI,MALME-3M melanoma,67.6 µM
same,TGI,M19-MEL melanoma,> 100 µM
same,TGI,OVCAR-5 ovarian,> 100 µM
same,TGI,SF-295 CNS,> 100 µM
same,TGI,SNB-75 CNS,> 100 µM
same,TGI,KM12 colon,> 100 µM
same,TGI,M14 melanoma,> 100 µM
same,TGI,NCI-H226 lung,> 100 µM
same,TGI,XF 498 CNS,98 µM
same,TGI,SK-OV-3 ovarian,> 100 µM
same,TGI,RXF 393 renal,> 100 µM
same,TGI,HOP-18 NSCLC,> 100 µM
same,TGI,LXFL 529 NSCLC,> 100 µM
same,TGI,HOP-62 NSCLC,> 100 µM
same,TGI,OVCAR-3 ovarian,> 100 µM
same,TGI,SR leukemia,> 100 µM
same,TGI,NCI-H522 lung,> 100 µM
same,TGI,A549 NSCLC,> 100 µM
same,TGI,HCC-2998 colon,> 100 µM
same,TGI,TK-10 renal,> 100 µM
same,TGI,SK-MEL-28 melanoma,> 100 µM
same,TGI,SF-268 CNS,> 100 µM
same,TGI,HT29 colon,98.4 µM
same,TGI,DLD-1 colon,> 100 µM
same,TGI,SN12C renal,> 100 µM
same,TGI,SK-MEL-5 melanoma,44.4 µM
same,TGI,DMS 273 small cell lung,> 100 µM
same,TGI,U251 CNS,> 100 µM
same,TGI,UO-31 renal,> 100 µM
same,TGI,CCRF-CEM leukemia,> 100 µM
same,TGI,SNB-19 CNS,> 100 µM
same,TGI,RPMI-8226 leukemia,56.5 µM
same,TGI,COLO 205 colon,> 100 µM
same,TGI,LOX IMVI melanoma,> 100 µM
same,TGI,SW-620 colon,> 100 µM
same,TGI,HOP-92 NSCLC,> 100 µM
same,TGI,786-0 renal,> 100 µM
same,TGI,K-562 leukemia,> 100 µM
